Source: publication PMC10098121, “Amphipathic barbiturates as marine product mimics with cytolytic and immunogenic effects on head and neck squamous cell carcinoma cell lines” (Frontiers in Pharmacology, 2023)

Key:
Assay type in all cases: cell-based, human
HSC-3 cells = test: Flow cytometric detection of apoptosis (Annexin V/PI); conditions: HSC-3, 24 h; cisplatin 50 µM, MPMs 5-20 µM
Protocol: HSC-3 and UT-SCC-24A cells were seeded, 300,000 cells/well, in 6-well plates and left to adhere overnight. The media was then removed and replaced by 2 ml complete DMEM/F-12 containing 5, 7.5, 10 or 20 µM of MPM-2:0, MPM-6:0, MPM-3:2 or MPM-4:2, or 50 µM cisplatin. Some cells were left untreated. The cells were then incubated for 24 h. Next, the cell supernatants were collected before the cells were trypsinized and spun down with the supernatants. For the staining, an apoptosis detection kit was used (#88-8005-74, Thermo Fisher Scientific). The cells were washed once in PBS and once in 1x binding buffer before being incubated with FITC labeled Annexin V diluted 1:25 in 1 × binding buffer for 15 min. Next the cells were washed in 1 × binding buffer before being incubated with PI diluted 1:100 in 1 × binding buffer for at least 5 min before analysis was performed on the LSR Fortessa (BD Biosciences, CA, United States). Analyses were performed in FlowJo™ v.10 (https://www.flowjo.com/).

[1] = test system: phosphorylated eIF2α in UT-SCC-24A cells; test: Western blot for phosphorylated eIF2α; conditions: 24 h, cisplatin 50 µM, MPMs 5-20 µM
Protocol: (§1) HSC-3 and UT-SCC-24A cells were seeded, 300,000 cells/well, in 6-well plates and left to adhere overnight. The media was then removed and replaced by 2 ml complete DMEM/F-12 containing 5, 7.5, 10 or 20 µM of MPM-2:0, MPM-6:0, MPM-3:2 or MPM-4:2, or 50 µM cisplatin. Some cells were left untreated. The cells were then incubated for 24 h. Next, the cell supernatants were collected before the cells were trypsinized and spun down with the supernatants. The cells were then washed twice in ice-cold PBS before being resuspended in 100 µl RIPA buffer (25 mM Tris-HCl (pH 7,6), 150 mM NaCl, 0.1% SDS, 0.5% sodium deoxycholate, 1% Triton X-100) containing 1% protease inhibitor (SIGMAFASTTM, #S8830, Sigma-Aldrich) and incubated on a shaker for 30 min. Next, the samples were sonicated and then kept at −70°C before being used. The samples were kept on ice or at 4°C during the whole procedure. The samples were thawed on ice and the protein concentration was measured using the DC Protein Assay kit (#5000111, Bio-Rad Laboratories, Hercules, CA, United States). 8 μg of protein was taken from each sample and mixed with DTT (final concentration 50 mM) and 20% 5 × sample buffer (250 mM Tris-HCl pH 6.8, 10% SDS, 20% Glycerol, 0.01% Bromphenol Blue). […]

[2] = test system: phosphorylated eIF2α in HSC-3 cells; test: Western blot for phosphorylated eIF2α; conditions: HSC-3, 24 h; cisplatin 50 µM, MPMs 5-20 µM
Protocol: as §1

[3] = test system: cell surface calreticulin on HSC-3 cells; test: Flow cytometric detection of cell surface calreticulin; conditions: HSC-3, 24 h; cisplatin 50 µM, MPMs 5-20 µM; vs untreated
Protocol: This procedure was based on a published method ([Liu et al., 2020]), but was performed with some modifications. Briefly, HSC-3 and UT-SCC-24A cells were seeded, 300,000 cells/well, in 6-well plates and left to adhere overnight. The media was then removed and replaced by 2 ml complete DMEM/F-12 containing 5, 7.5, 10 or 20 µM of MPM-2:0, MPM-6:0, MPM-3:2 or MPM-4:2, or 50 µM cisplatin. Some cells were left untreated. The cells were then incubated for 24 h. Next, the cell supernatants were collected before the cells were trypsinized and spun down with the supernatants. The cells were then washed in PBS before being incubated with the viability dye Zombie Violet (#423114, BioLegend, San Diego, CA, United States) diluted 1:500 in PBS for 20 min. Next, the cells were incubated with an anti-calreticulin antibody (#ab2907, Abcam) diluted 1:100 in FACS buffer (2%BSA in PBS) for 30 min. The cells were then fixed in 4% formaldehyde for 15 min and washed twice in FACS buffer before being incubated with the secondary antibody (#A11034, Thermo Fisher Scientific) diluted 1:250 in FACS buffer for 30 min. The cells were washed in FACS buffer and analyzed on a LSR Fortessa (BD Biosciences) within 1 week. Analyses were performed in FlowJo™ v.10 (https://www.flowjo.com/).

N.N.[Cl][Pt][Cl] [Cisplatin, cisplatin, reference compound]
apoptotic (Annexin V+/PI−) population (in words) (HSC-3 cells): small, but clearly apoptotic (Annexin V+/PI−) population
phosphorylation of eIF2α (in words) [1]: induced high levels of phosphorylated eIF2α
phosphorylation of eIF2α (in words) [2]: induced high levels of phosphorylated eIF2α
cell surface expression of calreticulin (in words) [3]: did not induce any cell surface expression of calreticulin
